US10597391B2, “Urea-containing isoxazole derivatives as FXR agonists and methods of use thereof” (Enanta Pharmaceuticals, Inc., priority 2016, dated 2020)
Read-outs that look alike come from different tables or passages of the source.

Biological target: T1, human FXR (NR1H4) (Homo sapiens, UniProt Q96RI1)
T1 sequence (Q96RI1 1-486): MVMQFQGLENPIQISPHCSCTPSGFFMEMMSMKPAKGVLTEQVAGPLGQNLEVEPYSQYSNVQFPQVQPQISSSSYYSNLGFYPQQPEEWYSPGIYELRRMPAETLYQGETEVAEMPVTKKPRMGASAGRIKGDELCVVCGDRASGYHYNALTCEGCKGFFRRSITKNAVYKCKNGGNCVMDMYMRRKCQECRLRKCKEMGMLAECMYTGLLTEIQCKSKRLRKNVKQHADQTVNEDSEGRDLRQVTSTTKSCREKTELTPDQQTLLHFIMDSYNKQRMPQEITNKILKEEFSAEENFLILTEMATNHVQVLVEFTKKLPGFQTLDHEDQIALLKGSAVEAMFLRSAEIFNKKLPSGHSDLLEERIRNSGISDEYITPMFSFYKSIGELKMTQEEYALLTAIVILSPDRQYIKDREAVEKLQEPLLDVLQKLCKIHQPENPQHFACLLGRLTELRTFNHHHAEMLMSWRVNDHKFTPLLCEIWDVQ
Assay: Human FXR (NR1H4) Assay: Gal4 promoter driven luciferase reporter transactivation in CHO cells (Indigo Bioscience kit IB00601)
Assay type: cell-based
Conditions: for Emax: CHO, read-out: Efficacy (%); for EC50: Human FXR (NR1H4) reporter assay in CHO cells
Method in brief: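 CHO reporter cells expressing human NR1H4 with luciferase driven by an FXR-responsive promoter (Gal4 system), run per manufacturer's kit. Compounds applied to plated cells, then incubated a further 22 hours at 37° C. Luciferase luminescence read after detection reagent as a surrogate of FXR activation, giving potency and efficacy.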

[1] = efficacy normalized to CDCA set as 100%

| SMILES | Emax [1] | EC50 (potency range, read-out: EC50) | Emax | EC50 (EC50, potency range) |
| --- | --- | --- | --- | --- |
| COC(=O)c1cc(OC)c(NC(=O)N2C3CCC2CC(OCc2c(-c4c(Cl)cccc4Cl)noc2C2CC2)C3)cc1-c1ccccc1 (stereo not shown) [Example 792] | 92% | < 10 nM |  |  |
| COc1cc(C(=O)O)ccc1NC(=O)N1C2CCC1CC(OCc1c(-c3c(Cl)cccc3Cl)noc1C1CC1)C2 (stereo not shown) [Example 192] |  | < 10 nM |  |  |
| CCOc1cc(C(=O)O)ccc1NC(=O)N1C2CCC1CC(OCc1c(-c3c(Cl)cccc3Cl)noc1C1CC1)C2 (stereo not shown) [Example 720] | 171% | < 10 nM |  |  |
| O=C(O)c1ccc(NC(=O)N2C3CCC2CC(OCc2c(-c4ccccc4OC(F)(F)F)noc2C2CC2)C3)c(F)c1 (stereo not shown) [Example 239] |  | 10 to 100 nM |  |  |
| COC(=O)c1ccc(NC(=O)N2C3CCC2CC(OCc2c(-c4c(Cl)cccc4Cl)noc2C2CC2)C3)cc1F (stereo not shown) [Example 196] |  | < 10 nM |  |  |
| O=C(O)c1ccc(NC(=O)N2C3CCC2CC(OCc2c(-c4c(Cl)cccc4Cl)noc2C2CC2)C3)cc1-c1ccccc1 (stereo not shown) [Example 201] |  | < 10 nM |  |  |
| COC(=O)c1ccc(NC(=O)N2C3CCC2CC(OCc2c(-c4c(Cl)cccc4Cl)noc2C2CC2)C3)nc1 (stereo not shown) [Example 786] | 44% | 10 to 100 nM |  |  |
| COc1c(NC(=O)N2C3CCC2CC(OCc2c(-c4ccccc4OC(F)(F)F)noc2C2CC2)C3)cccc1C(=O)OC(C)(C)C (stereo not shown) [Example 760] | 180% | > 1000 nM |  |  |
| O=C(O)c1ccc(NC(=O)N2C3CCC2CC(OCc2c(-c4ccccc4OC(F)(F)F)noc2C2CC2)C3)cc1 (stereo not shown) [Example 230] |  | 10 to 100 nM |  |  |
| CN1CCC(c2cccc(NC(=O)N3C4CCC3CC(OCc3c(-c5c(Cl)cccc5Cl)noc3C3CC3)C4)c2)CC1 (stereo not shown) [Example 5] |  | 10 to 100 nM |  |  |
| O=C(Nc1ccc(-c2ccccc2)cc1)N1C2CCC1CC(OCc1c(-c3c(Cl)cccc3Cl)noc1C1CC1)C2 (stereo not shown) [Example 728] | 141% | 10 to 100 nM |  |  |
| O=C(O)c1ccc(NC(=O)N2C3CCC2CC(OCc2c(C4CCC5(CC4)CC5)noc2C2CC2)C3)cc1-c1ccccc1 (stereo not shown) [Example 293] |  | 10 to 100 nM |  |  |
| O=C(O)c1ccc2nc(NC(=O)N3C4CCC3CC(OCc3c(-c5c(Cl)cccc5Cl)noc3C3CC3)C4)ccc2c1 (stereo not shown) [Example 789] | 57% | 10 to 100 nM |  |  |
| COC(=O)c1ccc(NC(=O)N2C3CCC2CC(OCc2c(-c4ccccc4OC(F)(F)F)noc2C2CC2)C3)nc1 (stereo not shown) [Example 764] | 230% | 100 to 1000 nM |  |  |
| COC(=O)c1ccc(NC(=O)N2C3CCC2CC(OCc2c(-c4ccccc4OC(F)(F)F)noc2C2CC2)C3)c(OC)c1 (stereo not shown) [Example 236] |  | 10 to 100 nM |  |  |
| O=C(NS(=O)(=O)c1ccccc1)c1cccc(NC(=O)N2C3CCC2CC(OCc2c(-c4ccccc4OC(F)(F)F)noc2C2CC2)C3)c1 (stereo not shown) [Example 759] | 205% | > 1000 nM |  |  |
| CCOC(=O)c1cccnc1NC(=O)N1C2CCC1CC(OCc1c(-c3ccccc3OC(F)(F)F)noc1C1CC1)C2 (stereo not shown) [Example 767] | 136% | 100 to 1000 nM |  |  |
| O=C(O)c1ccc(NC(=O)N2C3CCC2CC(OCc2c(-c4c(Cl)cccc4Cl)noc2C2CC2)C3)cc1-c1cncnc1 (stereo not shown) [Example 782] | 20% | 10 to 100 nM |  |  |
| CC(C)(C)c1ccc(NC(=O)N2C3CCC2CC(OCc2c(-c4c(Cl)cccc4Cl)noc2C2CC2)C3)cc1 (stereo not shown) [Example 697] | 174% | 100 to 1000 nM |  |  |
| O=C(O)c1ccc(NC(=O)N2C3CCC2CC(OCc2c(-c4c(Cl)cccc4Cl)noc2C2CC2)C3)cn1 (stereo not shown) [Example 213] |  | 100 to 1000 nM |  |  |
| O=C(Nc1ccc(C(F)F)cc1)N1C2CCC1CC(OCc1c(-c3c(Cl)cccc3Cl)noc1C1CC1)C2 (stereo not shown) [Example 189] |  | 10 to 100 nM |  |  |
| O=C(Nc1ccccc1F)N1C2CCC1CC(OCc1c(-c3c(Cl)cccc3Cl)noc1C1CC1)C2 (stereo not shown) [Example 7] |  | 10 to 100 nM |  |  |
| CCOC(=O)c1cnc2ccc(NC(=O)N3C4CCC3CC(OCc3c(-c5c(Cl)cccc5Cl)noc3C3CC3)C4)cc2c1 (stereo not shown) [Example 775] | 82% | < 10 nM |  |  |
| O=C(O)c1ccc(NC(=O)N2C3CCC2CC(OCc2c(-c4c(Cl)cccc4Cl)noc2C2CC2)C3)c(C2CC2)c1 (stereo not shown) [Example 801] | 70% | 10 to 100 nM |  |  |
| COC(=O)c1ccc(NC(=O)N2C3CCC2CC(OCc2c(-c4c(Cl)cccc4Cl)noc2C2CC2)C3)cn1 (stereo not shown) [Example 212] |  | < 10 nM |  |  |
| COc1ccc(C(=O)O)cc1NC(=O)N1C2CCC1CC(OCc1c(-c3ccccc3OC(F)(F)F)noc1C1CC1)C2 (stereo not shown) [Example 750] | 76% | 100 to 1000 nM |  |  |
| COC(=O)c1ccc2c(c1)CN(C(=O)N1C3CCC1CC(OCc1c(-c4ccccc4OC(F)(F)F)noc1C1CC1)C3)C2 (stereo not shown) [Example 597] |  |  | 53% | 100 to 1000 nM |
| O=C(Nc1ccc2ncccc2c1)N1C2CCC1CC(OCc1c(-c3c(Cl)cccc3Cl)noc1C1CC1)C2 (stereo not shown) [Example 22] |  | < 10 nM |  |  |
